According to the Kinase Knowledgebase extract (Sharma et al. 2016):

Key:
EGFR (human) [1] = target: EGFR (human) (UniProt P00533)
EGFR (human) [2] = target: EGFR (human) (UniProt P00533); settings: kb

EGFR (human), sequence (P00533 whole entry, looked up): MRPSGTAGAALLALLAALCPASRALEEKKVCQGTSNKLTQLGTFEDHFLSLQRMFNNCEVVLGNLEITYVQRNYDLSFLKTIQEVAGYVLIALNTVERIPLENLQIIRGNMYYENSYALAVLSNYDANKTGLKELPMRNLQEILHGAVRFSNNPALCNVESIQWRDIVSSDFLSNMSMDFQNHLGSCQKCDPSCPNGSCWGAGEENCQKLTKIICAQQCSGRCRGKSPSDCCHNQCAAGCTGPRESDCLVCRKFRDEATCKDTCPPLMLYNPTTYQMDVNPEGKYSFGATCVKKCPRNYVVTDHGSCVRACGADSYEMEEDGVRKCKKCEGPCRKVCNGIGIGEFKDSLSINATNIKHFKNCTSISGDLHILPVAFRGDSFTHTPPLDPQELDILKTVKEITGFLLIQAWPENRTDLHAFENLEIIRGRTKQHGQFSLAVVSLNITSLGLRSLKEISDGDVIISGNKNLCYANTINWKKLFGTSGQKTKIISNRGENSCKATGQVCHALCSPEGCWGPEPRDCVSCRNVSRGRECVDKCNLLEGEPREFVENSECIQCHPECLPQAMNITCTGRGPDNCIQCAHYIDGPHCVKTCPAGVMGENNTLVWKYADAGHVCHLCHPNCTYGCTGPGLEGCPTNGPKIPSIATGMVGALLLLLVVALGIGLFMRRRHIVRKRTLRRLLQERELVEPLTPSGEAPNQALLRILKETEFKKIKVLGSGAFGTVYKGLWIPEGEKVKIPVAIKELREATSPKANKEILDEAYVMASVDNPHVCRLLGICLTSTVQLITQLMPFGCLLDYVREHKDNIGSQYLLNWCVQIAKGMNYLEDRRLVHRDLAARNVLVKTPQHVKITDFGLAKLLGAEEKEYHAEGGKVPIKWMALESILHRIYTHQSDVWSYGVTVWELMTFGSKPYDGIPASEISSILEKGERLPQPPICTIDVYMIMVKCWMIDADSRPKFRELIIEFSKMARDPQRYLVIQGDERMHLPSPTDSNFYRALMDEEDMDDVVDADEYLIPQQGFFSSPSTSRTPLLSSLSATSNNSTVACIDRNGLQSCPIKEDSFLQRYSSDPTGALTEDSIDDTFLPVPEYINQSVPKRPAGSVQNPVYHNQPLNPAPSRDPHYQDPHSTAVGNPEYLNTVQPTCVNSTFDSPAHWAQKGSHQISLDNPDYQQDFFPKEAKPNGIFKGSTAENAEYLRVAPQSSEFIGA

| Compound | IC50 (EGFR (human) [1]) [nM] | IC50 (EGFR (human) [2]) [nM] |
| --- | --- | --- |
| COc1cc2ncnc(Nc3cccc(Cl)c3F)c2cc1O[C@@H]1C[C@@H](C(=O)NCCC#N)N(C)C1 | 0.012 | 0.063 |
| COc1cc2ncnc(Nc3cccc(Cl)c3F)c2cc1O[C@H]1C[C@H](C(=O)N[C@H]2COC[C@@H]2O)N(C)C1 | 0.01 | 0.139 |
| COc1cc2ncnc(Nc3cccc(Cl)c3F)c2cc1OC1CCN(C(=O)c2ccccn2)CC1 |  | 16 |
| COc1cc2c(Nc3cccc(Cl)c3F)ncnc2cc1OC1CCN(C(=O)Cc2cc(C)no2)CC1 |  | 47 |
| COc1cc2ncnc(Nc3cccc(Cl)c3F)c2cc1OC1CCN(C(=O)Nc2c(C)noc2C)CC1 |  | 17 |
| COc1cc2ncnc(Nc3cccc(Cl)c3F)c2cc1O[C@@H]1CCCN(C(=O)Cc2cccs2)C1 |  | 30 |
| COc1cc2c(Nc3cccc(Cl)c3F)ncnc2cc1OC1CCN(C(=O)c2cccnc2)CC1 |  | 87 |
| COc1cc2ncnc(Nc3cccc(Cl)c3F)c2cc1OC1CCN(C(=O)c2ccno2)CC1 |  | 17 |
| COc1cc2ncnc(Nc3cccc(Cl)c3F)c2cc1O[C@H]1C[C@H](C(=O)NCCNC(C)=O)N(C)C1 | 0.008 | 0.144 |
